Reference: patent publication US12098139B2, “Chemokine receptor modulators and uses thereof” (RAPT Therapeutics, Inc., priority 2018, dated 2024)
pIC50: −log10 of the molar value. Read-outs that look alike come from different tables or passages of the source. Values belong to the compound of their own block, whether it stands above or below them.

Columns and labels:
[1] = tested on: ovalbumin-induced pulmonary inflammation; experiment: Murine model of ovalbumin-induced pulmonary inflammation (BALF cell counts and mediators); assay type: in vivo, mouse (female Balb/c); conditions: for IL-5 levels in BALF: vs OVA group (FIG. 3)
Protocol: A study was performed to investigate the effects of daily oral administration of the compound 2-((R)-3-(1-(1-((R)-1-(2,4-Dichlorophenyl)ethyl)-3-(cyano)-1H-pyrazolo[3,4-b]pyrazin-6-yl)azetidin-3-yl)piperidin-1-yl)ethan-1-ol (FLX-A-12) (disclosed in US Patent Publication 2018-0072740 published Mar. 15, 2018) and the compound (1R,3r)-3-((R)-3-(1-(5-chloro-4-(((R)-1-(2,4-dichlorophenyl)ethyl)amino)-6-methylpyrimidin-2-yl)azetidin-3-yl)piperidin-1-yl)-1-methylcyclobutane-1-carboxylic acid (FLX-B-10) (disclosed in Example 38 herein) on the level of lung eosinophilia in a murine model of ovalbumin-induced pulmonary inflammation. An automated system of haematological cellular analysis (DASIT Sysmex XT-2000iV) was used to perform total and differential cell counts and assess the degree of ovalbumin challenge-induced pulmonary eosinophilia. FLX-A-12 and FLX-B-10 were administered daily for five days at the doses of 50 and 30-100 mg/kg respectively, and eosinophilic inflammation was measured 24 hours after the last ovalbumin challenge. Dexamethasone was included as a positive reference substance (3 mg/kg p.o. daily). On days 20-23 inclusive, mice received vehicle (30% PG in water), reference compound (Dexamethasone, 3 mg/kg) and test compounds (FLX-A-12 at 50 mg/kg and FLX-B-10 at 30 and 100 mg/kg), 1 hr prior ovalbumin challenge via the p.o. route. In addition, the test compounds (FLX-A-12 and FLX-B-10) were dosed on day 19 24 hr prior to the dosing on day 20.
FLX-A-12 was formulated at the concentration of 5 mg/mL (corresponding to the dose of 50 mg/kg in a dose volume of 10 mL/kg) in 30% PG in water. The doses of FLX-B-10 (30 and 100 mg/kg) were prepared by dissolving 3 and 10 mg/ml of the compound respectively in 30% PG in water at a dose volume of 10 ml/kg. The dose of Dexamethasone (3 mg/kg) was prepared by dissolving 0.3 mg/mL of the compound in 30% PG in water at a dose volume of 10 ml/kg.
The effects of FLX-A-12 and FLX-B-10 were assessed in the ovalbumin mouse model of pulmonary inflammation. The study was performed in female Balb/c mice, and included the following 6 treatment groups (n=10/group): (i) Vehicle group: challenged with saline and dosed with compound Vehicle, 1 hr before challenge; (ii) OVA/Vehicle group (control): challenged with ovalbumin and dosed with compound Vehicle, 1 hr before challenge; (iii) OVA/FLX-A-12 50 mg/kg (p.o.): challenged with ovalbumin and dosed with FLX-A-12, 1 hr before challenge; (iv) OVA/FLX-B-10 30 mg/kg (p.o.): challenged with ovalbumin and dosed with FLX-B-10, 1 hr before challenge; (v) OVA/FLX-B-10 100 mg/kg (p.o.): challenged with ovalbumin and dosed with FLX-B-10, 1 hr before challenge; and (vi) Dexamethasone 3 mg/kg (p.o.) group: challenged with ovalbumin and dosed with Dexamethasone, 1 hr before challenge.
The eosinophilic inflammation induced by ovalbumin-challenge (i.n.) was measured as cell count increase in bronchoalveolar lavage fluid (BALF) using an automated system of haematological cellular analysis (DASIT Sysmex XT-2000iV) at 24 hours after the last OVA-challenge. The effects of the test compounds were evaluated as ability to decrease the eosinophilic inflammation with respect to the OVA group.
For antigen sensitization, on day 1, animals received 10 μg of OVA in 2 mg of Aluminium hydroxide hydrate (AlOH3) at a dose volume of 200 μl per mouse subcutaneously (s.c.). On day 14, all animals got a second (boost) s.c. injection with the same dose of Alum/OVA as above.
On days 20-23 inclusive, mice received vehicle, 30% PG in water, reference compound (Dexamethasone 3 mg/kg) and test compounds (FLX-A-12 at 50 mg/kg and FLX-B-10 at 30 and 100 mg/kg), 1 hr prior OVA challenge via the p.o. route. In addition, test compounds (FLX-A-12 and FLX-B-10) were dosed on day 19, 24 hr prior to the dosing on day 20. All compounds were administered at a dose volume of 10 ml/kg. Dose volumes were calculated based on individual animal weight. […]

[2] = biological target: T1, hCCR4 (Chem5-hCCR4 cells) (Homo sapiens, UniProt P51679); experiment: Calcium flux assay (CCL22-stimulated, FLIPR Calcium 6 dye); assay type: cell-based; conditions: read-out: Potency (IC50)
T1 sequence (P51679 1-360): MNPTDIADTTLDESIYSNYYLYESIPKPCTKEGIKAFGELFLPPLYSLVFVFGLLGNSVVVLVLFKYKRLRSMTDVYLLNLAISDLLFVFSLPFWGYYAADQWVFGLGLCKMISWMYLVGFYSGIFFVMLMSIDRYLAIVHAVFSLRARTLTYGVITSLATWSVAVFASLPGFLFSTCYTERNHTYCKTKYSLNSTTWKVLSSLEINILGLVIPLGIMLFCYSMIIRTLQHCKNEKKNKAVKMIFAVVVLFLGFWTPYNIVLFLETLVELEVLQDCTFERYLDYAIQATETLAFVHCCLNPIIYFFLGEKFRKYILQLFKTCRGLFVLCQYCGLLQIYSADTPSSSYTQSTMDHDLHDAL
Procedure, shortened: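 Chem5-hCCR4 cells were serum-starved 2 h and loaded 2 h with Calcium 6 dye plus 2.5 mM probenecid. They were then preincubated 1 h at 37 °C with compound (0.5% DMSO). CCL22 was added from a 7.5 nM working solution (5× EC80), and ΔF/Fmin at 485/525 nm was fitted 4-parameter for IC50.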

Structure (SMILES): C[C@H](c1ccc(Cl)cc1Cl)n1nc(C#N)c2ncc(N3CC([C@H]4CCCN(CCO)C4)C3)nc21 [FLX-A-12, 2-((R)-3-(1-(1-((R)-1-(2,4-Dichlorophenyl)ethyl)-3-(cyano)-1H-pyrazolo[3,4-b]pyrazin-6-yl)azetidin-3-yl)piperidin-1-yl)ethan-1-ol, reference compound]
- IL-5 levels in BALF ([1]; 50 mg/kg p.o.): significantly reduced

Structure (SMILES): C[C@@H]1C[C@H]2[C@@H]3CCC4=CC(=O)C=C[C@]4(C)[C@@]3(F)[C@@H](O)C[C@]2(C)[C@@]1(O)C(=O)CO [Dexamethasone, dexamethasone, reference compound]
- percentage of reduction in the eosinophilic cell count in BALF ([1]; 3 mg/kg p.o. daily, 24 hours after last ovalbumin challenge, vs OVA group): 92%

Structure (SMILES): Cc1nc(N2CC([C@H]3CCCN([C@H]4C[C@](C)(C(=O)O)C4)C3)C2)nc(N[C@H](C)c2ccc(Cl)cc2Cl)c1Cl [FLX-B-10, (1R,3r)-3-((R)-3-(1-(5-chloro-4-(((R)-1-(2,4-dichlorophenyl)ethyl)amino)-6-methylpyrimidin-2-yl)azetidin-3-yl)piperidin-1-yl)-1-methylcyclobutane-1-carboxylic acid]
- CCL-22 in BALF ([1]; 30 mg/kg p.o. (FIG. 6)): significantly reduced in all conditions, except for FLX-B-10 at 30 mg/kg
- IL-5 levels in BALF ([1]; 100 mg/kg p.o.): significantly reduced
- IL-13 in BALF, dose dependence ([1]; 30 and 100 mg/kg p.o. (FIG. 4)): dose-dependent decrease
- CCL-22 in BALF, dose dependence ([1]; 30 and 100 mg/kg p.o. (FIG. 6)): dose-dependent decrease
- reduction of eosinophilic inflammation (BALF) with respect to the OVA group ([1]; 30 and 100 mg/kg p.o., 24 hours after last ovalbumin challenge): statistically significant reduction of eosinophilic inflammation only at 100 mg/kg

Structure (SMILES): C[C@@H](Nc1nc(N2CC([C@H]3CCCN([C@H]4C[C@](C)(C(=O)O)C4)C3)C2)nc2ccsc12)c1ccc(Cl)cc1Cl [Example 28, (1R,3r)-3-((R)-3-(1-(4-(((R)-1-(2,4-dichlorophenyl)ethyl)amino)thieno[3,2-d]pyrimidin-2-yl)azetidin-3-yl)piperidin-1-yl)-1-methylcyclobutane-1-carboxylic acid]
- pIC50 ([2]; Table 3, CCL22 1.5 nM): > 7.00

Structure (SMILES): C[C@@H](Nc1nc(N2CC([C@H]3CCCN([C@H]4C[C@@](C)(C(=O)O)C4)C3)C2)nc2ccccc12)c1ccc(Cl)cc1Cl [Example 27, (1S,3s)-3-((R)-3-(1-(4-(((R)-1-(2,4-dichlorophenyl)ethyl)amino)quinazolin-2-yl)azetidin-3-yl)piperidin-1-yl)-1-methylcyclobutane-1-carboxylic acid]
- pIC50 ([2]; Table 3, CCL22 1.5 nM): > 7.00

More lines, now with the values ahead:

- pIC50 ([2]; Table 4, CCL22 1.5 nM): < 6.30
Structure (SMILES): C[C@@H](Nc1nc(N2CC([C@H]3CCCN(CCO)C3)C2)cnc1C#N)c1ccc(Cl)cc1S(C)(=O)=O [Example 49, 3-[[(1R)-1-(4-chloro-2-methylsulfonyl-phenyl)ethyl]amino]-5-[3-[(3R)-1-(2-hydroxyethyl)-3-piperidyl]azetidin-1-yl]pyrazine-2-carbonitrile; 2,2,2-trifluoroacetic acid]

- pIC50 ([2]; Table 5, CCL22 1.5 nM): > 7.00
Structure (SMILES): C[C@@H](Nc1nc(N2CC([C@H]3CCCN(CCO)C3)C2)nc2ccsc12)c1ccc(Cl)cc1Cl [Example 62, 2-[(3R)-3-[1-[4-[[(1R)-1-(2,4-dichlorophenyl)ethyl]amino]thieno[3,2-d]pyrimidin-2-yl]azetidin-3-yl]-1-piperidyl]ethanol; 2,2,2-trifluoroacetic acid]

- pIC50 ([2]; Table 5, CCL22 1.5 nM): > 7.00
Structure (SMILES): Cc1cc(N[C@H](C)c2ccc(Cl)cc2Cl)nc(N2CC([C@H]3CCCN(C4CC(C)(C(=O)O)C4)C3)C2)n1 (single isomer, unassigned) [Example 90]

- pIC50 ([2]; Table 3, CCL22 1.5 nM): > 7.00
Structure (SMILES): C[C@@H](Nc1nc(N2CC([C@H]3CCCN([C@H]4C[C@](C)(C(=O)O)C4)C3)C2)ncc1Br)c1ccc(F)cc1Cl [Example 45, (1R,3r)-3-((R)-3-(1-(5-bromo-4-(((R)-1-(2-chloro-4-fluorophenyl)ethyl)amino)pyrimidin-2-yl)azetidin-3-yl)piperidin-1-yl)-1-methylcyclobutane-1-carboxylic acid]

- pIC50 ([2]; Table 5, CCL22 1.5 nM): 6.30 to 7.00
Structure (SMILES): C[C@@H](Nc1nc(N2CC([C@H]3CCCN(CC(=O)N4CCCC4)C3)C2)ncc1Cl)c1ccc(Cl)cc1Cl [Example 56, 2-[(3R)-3-[1-[5-chloro-4-[[(1R)-1-(2,4-dichlorophenyl)ethyl]amino]pyrimidin-2-yl]azetidin-3-yl]-1-piperidyl]-1-pyrrolidin-1-yl-ethanone; 2,2,2-trifluoroacetic acid]

- pIC50 ([2]; Table 5, CCL22 1.5 nM): > 7.00
Structure (SMILES): C[C@@H](Nc1cc(C2CC2)nc(N2CC([C@H]3CCCN(C4CC(C)(C(=O)O)C4)C3)C2)n1)c1ccc(Cl)cc1Cl (single isomer, unassigned) [Example 80]

- pIC50 ([2]; Table 5, CCL22 1.5 nM): 6.30 to 7.00
Structure (SMILES): C[C@@H](Nc1cc(C(F)(F)F)nc(N2CC([C@H]3CCCN([C@H]4C[C@](C)(C(=O)O)C4)C3)C2)n1)c1ccc(Cl)cc1Cl [Example 59, 3-[(1R)-3-[1-[4-[[(1R)-1-(2,4-dichlorophenyl)ethyl]amino]-6-(trifluoromethyl)pyrimidin-2-yl]azetidin-3-yl]-1-piperidyl]-1-methyl-cyclobutanecarboxylic acid]
